A value given as a limit tells only on which side of the number the result lay.

The subject of assay [1] is SPARC mRNA expression in Panc1. As to the kind of experiment: Effect of TGF-β on SPARC mRNA expression in pancreatic cancer cell lines. The format is cell-based, human. The settings on record: TGF-β 5 ng/ml, data not shown. The method, then:
(§1) Four μg of total RNA was reverse-transcribed using Superscript II (Invitrogen). The SPARC RT-PCR reaction was performed under the condition as follow: 95° C. for 5 minutes; then 28 cycles of 95° C. for 20 seconds, 63° C. for 20 seconds, and 72° C. for 20 seconds; and a final extension of 4 minutes at 72° C. Primer sequences were 5′-AAGATCCATGAGAATGAGAAG-3′ (forward) (SEQ ID NO: 11) and 5′-AAA AGC GGG TGG TGC AAT G-3′ (reverse) (SEQ ID NO: 12). To check the integrity of mRNA, glyceraldehyde-3-phosphate dehydrogenase (GAPDH) was also amplified in the same PCR condition. For semiquantitative analysis, the RT-PCR was performed with primers for SPARC and GAPDH in duplex reactions, and range of linear amplification for both genes was examined with serial PCR cycles to determine the optimal cycle. The relative intensity of SPARC mRNA expression was then corrected for variable RNA recovery using the corresponding GAPDH mRNA measurement as a surrogate for total mRNA.
(§2) Because several growth factors such as TGF-β are known to induce the SPARC expression in fibroblasts (Wrana et al., 1991; Reed et al., 1994), and because TGF-β is one of the major secreted proteins highly expressed by pancreatic cancer cells (Friess et al., 1993), we examined the effect of TGF-β on SPARC expression in fibroblasts (panc-f3). […]

The test system of assay [2] is SPARC mRNA expression in AsPC1. Described as above. Type of assay: cell-based, human. The settings on record: TGF-β 5 ng/ml, data not shown. The method, then:
as §1, §2

The test system of assay [3] is SPARC mRNA expression in fibroblasts (panc-f3). As to the kind of experiment: Effect of TGF-β on SPARC expression in fibroblasts (semiquantitative RT-PCR). Type of assay: cell-based, human. The settings on record: TGF-β 5 ng/ml, 24 hours. As for the experimental part:
as §1, §2

The test system of assay [4] is SPARC gene expression in pancreatic cancer cells. To be noted: pancreatic cancer cells treated with 5Aza-dC; Sato et al., manuscript submitted; cited from earlier work.
The subject of another assay is SPARC mRNA expression. As to the kind of experiment: 5Aza-dC / TSA treatment of pancreatic cancer cell lines harboring SPARC methylation, SPARC mRNA by RT-PCR. Type of assay: cell-based, human. As for the experimental part:
as §1
Eight pancreatic cancer cell lines (AsPC1, BxPC3, Capan2, CFPAC1, Hs766T, MiaPaCa2, PL3, and PL12) were treated with 5Aza-dC. Cells in log phase growth were seeded in T-75 culture flasks. After overnight incubation, the cells were exposed continuously to 5Aza-dC (1 μM) for 4 days, with a change of drug and culture medium every 24 hours.
To confirm that DNA methylation is a mechanism for the silencing of SPARC, we treated 8 pancreatic cancer cell lines harboring SPARC methylation with the demethylating agent 5Aza-dC.

In the next assay the test system is Panc1 cells. As to the kind of experiment: Effect of exogenous SPARC on proliferation of pancreatic cancer cells (cell count by hemacytometer). Type of assay: cell-based, human. To be noted: SPARC 10 μg/ml, 72 hours. The method, then: (§3) We treated two pancreatic cancer cell lines (AsPC1 and Panc1) with exogenous SPARC. Cells in log phase growth were seeded at a density of 1×10^4 cells/well in 24-well plates. After overnight incubation, cells were treated with or without human platelet SPARC protein (10 μg/ml) for 72 hours, and the number of cells were counted by hemacytometer in three independent wells.
(§4) The effect of exogenous SPARC protein on growth of pancreatic cancer cells in vitro was also examined. We treated two pancreatic cancer cell lines (AsPC1 and Panc1) with purified SPARC protein and counted the number of cells after 72 hours.

In a further assay the test system is AsPC1 cells. Described as above. Type of assay: cell-based, human. To be noted: SPARC 10 μg/ml, 72 hours. The method, then: as §3, §4

With “TGF-β: human recombinant transforming growth factor (TGF)-β1 purchased from Sigma”, the “increase in SPARC mRNA expression” value in assay [1] is recorded as ~1,5 fold; in assay [3], ~3,3 fold. Also, the “SPARC transcript after treatment” value in assay [2] is “remained undetectable”.
`Nc1ncn([C@H]2C[C@H](O)[C@@H](CO)O2)c(=O)n1` [5Aza-dC, 5-Aza-2′-deoxycytidine]: the “induction of SPARC gene expression (oligonucleotide microarrays)” value in assay [4] was at least 5 fold. Further, the “SPARC mRNA expression after treatment (RT-PCR)” value in the assay with SPARC mRNA expression (8 pancreatic cancer cell lines harboring SPARC methylation, 5Aza-dC 1 μM, 4 days) was “restored in 7 of the 8 cell lines”; in the assay with SPARC mRNA expression (Hs766T cell line), “did not restore the SPARC expression”.
On to `CC(/C=C/C(=O)NO)=C\[C@@H](C)C(=O)c1ccc(N(C)C)cc1` [trichostatin A (TSA), trichostatin A], for which the “SPARC mRNA expression after treatment (RT-PCR)” value with SPARC mRNA expression (Hs766T cell line) was “did not induce the SPARC expression”.

B1: SPARC: Purified human platelet SPARC protein purchased from Calbiochem (protein, UniProt P09486 18-303, looked up)
SPARC: APQQEALPDETEVVEETVAEVTEVSVGANPVQVEVGEFDDGAEETEEEVVAENPCQNHHCKHGKVCELDENNTPMCVCQDPTSCPAPIGEFEKVCSNDNKTFDSSCHFFATKCTLEGTKKGHKLHLDYIGPCKYIPPCLDSELTEFPLRMRDWLKNVLVTLYERDEDNNLLTEKQKLRVKKIHENEKRLEAGDHPVELLARDFEKNYNMYIFPVHWQFGQLDQHPIDGYLSHTELAPLRAPLIPMEHCTTRFFETCDLDNDKYIALDEWAGCFGIKQKDIDKDLVI
Turning to B1, in the assay with Panc1 cells (P<0.0001), the growth inhibition is listed as around 30%. Besides, the cell number in the assay on Panc1 cells (mean±SD, untreated 5.0±0.4) was 3.5±0.4 ×10^4 cells; in the assay on AsPC1 cells (mean±SD, untreated 5.8±0.8), 4.2±0.3 ×10^4 cells. In the assay on AsPC1 cells (P=0.001), the growth suppression was around 27%.

Source of the values: US7879542B2, “Methylated gene biomarkers for detecting cancer” (The Johns Hopkins University, priority 2003, dated 2011).
